Assay results: patent US8436187B2, “1-heterocyclylsulfonyl, 3-aminomethyl, 5- (hetero-) aryl substituted 1-H-pyrrole derivatives as acid secretion inhibitors” (Takeda Pharmaceutical Company Limited, priority 2005, dated 2013)

Experiments:
[1] = target: T1, proton, potassium-adenosine triphosphatase (H+,K+-ATPase) (Sus scrofa, UniProt P19156); experiment: H+,K+-ATPase inhibitory activity test; format: biochemical; conditions: swine gastric mucous membrane microsomal fraction; pH 6.5, 37° C.
T1 construct: The obtained microsomal fraction was used as a proton, potassium—adenosine triphosphatase standard product; from tissue; host or cells: swine stomach, gastric mucous membrane microsomal fraction
T1 sequence (P19156 2-1034 limits assumed): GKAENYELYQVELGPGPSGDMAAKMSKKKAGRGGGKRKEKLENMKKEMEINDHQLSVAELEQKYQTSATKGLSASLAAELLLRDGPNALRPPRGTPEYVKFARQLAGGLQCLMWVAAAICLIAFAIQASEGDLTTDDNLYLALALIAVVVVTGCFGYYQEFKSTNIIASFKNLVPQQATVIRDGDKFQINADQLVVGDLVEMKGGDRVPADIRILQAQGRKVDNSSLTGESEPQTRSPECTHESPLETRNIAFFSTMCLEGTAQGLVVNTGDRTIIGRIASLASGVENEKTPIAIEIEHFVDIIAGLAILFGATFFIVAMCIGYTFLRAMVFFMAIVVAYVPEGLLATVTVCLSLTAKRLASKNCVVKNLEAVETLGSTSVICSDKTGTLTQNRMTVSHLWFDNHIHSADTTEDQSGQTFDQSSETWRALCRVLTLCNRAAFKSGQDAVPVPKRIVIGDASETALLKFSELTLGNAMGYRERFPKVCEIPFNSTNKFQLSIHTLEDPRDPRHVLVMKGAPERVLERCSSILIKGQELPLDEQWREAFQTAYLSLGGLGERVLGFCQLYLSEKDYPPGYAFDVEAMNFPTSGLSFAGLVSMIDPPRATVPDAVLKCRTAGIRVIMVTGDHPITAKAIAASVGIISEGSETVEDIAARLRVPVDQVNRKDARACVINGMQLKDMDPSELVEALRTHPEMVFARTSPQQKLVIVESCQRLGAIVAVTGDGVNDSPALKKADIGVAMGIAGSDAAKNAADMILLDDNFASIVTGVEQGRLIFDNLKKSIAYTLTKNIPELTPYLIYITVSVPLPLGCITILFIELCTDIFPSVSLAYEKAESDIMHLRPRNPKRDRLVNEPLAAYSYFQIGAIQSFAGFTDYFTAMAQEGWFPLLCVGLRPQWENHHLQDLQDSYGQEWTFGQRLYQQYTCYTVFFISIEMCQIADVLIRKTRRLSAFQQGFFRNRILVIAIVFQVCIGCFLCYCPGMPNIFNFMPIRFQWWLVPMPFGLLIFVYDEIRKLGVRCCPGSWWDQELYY
T1 sequence (P18434 whole entry partner): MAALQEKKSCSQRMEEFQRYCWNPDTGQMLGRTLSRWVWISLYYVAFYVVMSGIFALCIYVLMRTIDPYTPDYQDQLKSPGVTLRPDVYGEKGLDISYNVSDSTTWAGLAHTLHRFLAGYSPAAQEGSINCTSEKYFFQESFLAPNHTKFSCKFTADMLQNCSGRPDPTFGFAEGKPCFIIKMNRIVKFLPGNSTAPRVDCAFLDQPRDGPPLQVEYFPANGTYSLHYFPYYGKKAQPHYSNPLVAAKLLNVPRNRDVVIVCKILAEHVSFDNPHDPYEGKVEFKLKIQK
Protocol: According to the method [Biochim. Biophys. Acta, 728, 31 (1983)] of Wallmark et al., a gastric mucous membrane microsomal fraction was prepared from the stomach of swine. First, the stomach was removed, washed with tap water, immersed in 3 mol/L brine, and the surface of the mucous membrane was wiped with a paper towel. The gastric mucous membrane was detached, chopped, and homogenized in a 0.25 mol/L saccharose solution (pH 6.8) containing 1 mmol/L EDTA and 10 mmol/L tris-hydrochloric acid using polytron (Kinematica). The obtained homogenate was centrifuged at 20,000×g for 30 min and the supernatant was centrifuged at 100,000×g for 90 min. The precipitate was suspended in 0.25 mol/L saccharose solution, superimposed on a 0.25 mol/L saccharose solution containing 7.5% Ficoll, and centrifuged at 100,000×g for 5 hr. […]
To 40 μL of a 50 mmol/L HEPES-tris buffer (5 mmol/L magnesium chloride, 10 mmol/L potassium chloride, 10 […], pH=6.5) containing 2.5 μg/mL (based on the protein concentration) of the enzyme standard product was added a test compound (5 μL) dissolved in a 10% aqueous dimethyl sulfoxide solution, and the mixture was incubated at 37° C. for 30 min. […] After allowing to stand at room temperature for 15 min, the resulting reaction product of inorganic phosphorus with malachite green was colorimetrically determined at a wavelength of 610 nm. […]

[2] = test system: Human liver cancer-derived cell line HepG2; experiment: intracellular ATP content in HepG2 cells (ATPLite); format: cell-based; conditions: HepG2, culture for one day, relative value to control (without drug), n≧3, average
Protocol: Human liver cancer-derived cell line HepG2 (ATCC No. HB-8065) was passaged using Dulbecco's Modified Eagle medium (DMEM; Invitrogen) containing 10% fetal bovine serum (FBS; TRACE SCIENTIFIC LTD.), 1 mmol/L sodium pyruvate (Invitrogen), 2 mmol/L L-glutamine (Invitrogen), 50 IU/mL penicillin (Invitrogen) and 50 μg/mL streptomycin (Invitrogen) at 5% CO2. 37° C. The test reagent was prepared with DMSO to 10 mM, and further diluted with DMEM medium containing 0.5% FBS, 1 mmol/L sodium pyruvate, 2 mmol/L L-glutamine, 50 IU/mL penicillin and 50 μg/mL streptomycin to a final concentration of DMSO of 0.1%. HepG2 (2×10^4 cells/well) was cultured on a 96 well white plate (Costar) with the test reagent at 5% CO2, 37° C. After culture for one day, the intracellular ATP content was measured using ATPLite™ (PerkinElmer Life Sciences). The results are shown in Table 24 (n≧3, average value±SD) as a relative value (%) to control (without addition of drug) at 30 μM.

| IC50 [1] | ATP content (%, 30 μM) [2] | SMILES |
| --- | --- | --- |
| 0.034 µM | 76.5% | CNCc1cc(-c2ccccc2)n(S(=O)(=O)c2ccc(C)nc2)c1.Cl.Cl [Example 24, N-methyl-1-{1-[(6-methylpyridin-3-yl)sulfonyl]-5-phenyl-1H-pyrrol-3-yl}methanamine dihydrochloride] |
| 0.0089 µM | 53.6% | CNCc1cc(-c2ccc(Cl)cc2F)n(S(=O)(=O)c2cccnc2)c1.Cl.Cl [Example 34, 1-[5-(4-chloro-2-fluorophenyl)-1-(pyridin-3-ylsulfonyl)-1H-pyrrol-3-yl]-N-methylmethanamine dihydrochloride] |
